Measured values published in BindingDB's records for doi:10.1021/jm021113r (University of Camerino, 2003).

Biological target: Nischarin / imidazoline I1 receptor (Rattus norvegicus)
Experiment: Displacement of [125I]p-iodoclonidine from imidazoline receptor I-1 in rat pheochromocytoma cells

Ki [µM] | SMILES
6.03 | CC(CC1=NCCN1)c1ccccc1 (stereo not given)
0.589 | C[C@H](CC1=NCCN1)c1ccccc1
7.24 | C[C@@H](CC1=NCCN1)c1ccccc1
3.71 | c1ccc(CCC2=NCCN2)cc1 [2-Phenethyl-4,5-dihydro-1H-imidazole]

SMILES | Ki [µM]
CC(Oc1ccccc1)C1=NCCN1 (stereo not given) | 0.309
